Assay results reported in patent US9475789B2, “Use of polyenylpyrrole derivatives for treating inflammation” (WELLHEAD BIOLOGICAL TECHNOLOGY CORP., priority 2014, dated 2016).

What was measured:
TNF-α = TNF-α ELISA, LPS-activated J774A.1 macrophages; format: cell-based, murine; conditions: J774A.1 cells, LPS 1 μg/ml 24 h
Method: (A) J774A.1 macrophages (4×10^5/ml), (B) peritoneal macrophages (4×10^5/ml), and (C) JAWSII dendritic cells (4×10^5/ml) were incubated with compound 1h or DMSO for 30 min followed by stimulating with LPS (1 μg/ml) for 24 h, then IL-6 and TNF-α concentration in culture medium were assayed by ELISA. The data are expressed as the mean±SD for three separate experiments. *, **, and *** indicate a significant difference at the level of p<0.05, p<0.01, p<0.001 respectively compared to LPS group.
The effects of tested samples on IL-1β, TNF-α and IL-6 production were measured by ELISA according to the manufacturer's instruction. In brief, 50 μl of biotinylated antibody reagent and 50 μl of supernatant were added to an anti-mouse IL-1β, TNF-α and IL-6 precoated stripwell plate, and incubated at room temperature for 2 h. After washing the plate three times with washing buffer, 100 μl of diluted streptavidin-HRP concentrate was added to each well and incubated at room temperature for 30 min. The washing process was repeated; then 100 μl of a premixed tetramethylbenzidine substrate solution was added to each well and developed at room temperature in the dark for 30 min. Following the addition of 100 μl of stop solution to each well to stop the reaction, the absorbance of the plate was measured by a microplate reader at 450 nm wavelength.

NF-κB p65 = NF-κB p65 nuclear translocation ELISA, J774A.1 macrophages; format: cell-based, murine; conditions: compound 1h 10-40 μM, LPS 20 min
Method: (A) RAW 264.7 macrophages (5×10^5/ml) or (B) J774A.1 macrophages (5×10^5/ml) were incubated with compound 1h or DMSO for 30 min followed by LPS (1 μg/ml) stimulating for 20 min, then the phosphorylation levels of IKK-α and IκB-α and total IκB-α protein level were analyzed by Western blot. (C) RAW 264.7 macrophages (5×10^5/ml) or (D) J774A.1 macrophages (5×10^5/ml) were incubated with compound 1h (10-40 μM) or DMSO for 30 min followed by LPS (1 μg/ml) stimulating for 20 min, then the nuclear translocation of NF-κB were analyzed by ELISA. (E) RAW-Blue™ cells (5×10^5/ml) were incubated with compound 1h (2.5-40 μM) or DMSO for 30 min followed by LPS (1 μg/ml) stimulating for 24 h, then the SEAP activity was measured by QUANTI-Blue™. […] In (C), (D), and (E), the data are expressed as the mean±SD for three separate experiments. *, **, and *** indicate a significant difference at the level of p<0.05, p<0.01, and p<0.001 respectively compared to LPS group.
Nuclear protein from RAW 264.7 and J774A.1 cells were extracted using a Nuclear Extract Kit (Active Motif) according to the manufacturer's instructions and nuclear NF-κB p65 activation quantified using an ELISA-based TransAM NF-κB kit (Active Motif, Tokyo, Japan) according to the manufacturer's protocol by reading the absorbance with a microplate absorbance reader (Bio-Rad Laboratories, Inc) at 450 nm with a reference wavelength of 655 nm.

[1] = tested on: NLRP3 inflammasome-mediated IL-1β secretion; assay: IL-1β ELISA, LPS+ATP-activated J774A.1 macrophages (NLRP3 inflammasome); format: cell-based, mouse
Method: (A) J774A.1 macrophages (1×10^6/ml) and (B) peritoneal macrophages (1×10^5/ml) were incubated with compound 1h for 30 min followed by LPS (1 μg/ml) stimulating for 5.5 h, then the cells were stimulated with ATP (5 mM) for an additional 30 min. The IL-1β in the culture medium was measured by ELISA and the expression of active caspase-1 (p10) was measured by Western blot. In (C) and (D), J774A.1 macrophages (1×10^6/ml) were incubated with LPS (1 μg/ml) for 5.5 h, then cells were incubated with compound 1h for 30 min followed by stimulating with ATP (5 mM) for an additional 30 min. The IL-1β and IL-6 in the culture medium were measured by ELISA and the expression of active caspase-1 (p10) was measured by Western blot. In (E), J774A.1 macrophages (1×10^6/ml) were incubated with compound 1h for 30 min followed by LPS (1 μg/ml) stimulating for 6 h. The expression of NLRP3 and proIL-1β were measured by Western blot.
The effects of tested samples on IL-1β, TNF-α and IL-6 production were measured by ELISA according to the manufacturer's instruction. […] Following the addition of 100 μl of stop solution to each well to stop the reaction, the absorbance of the plate was measured by a microplate reader at 450 nm wavelength.

O=c1cc(O)cc(/C=C/C=C/C=C/C=C/c2[nH]ccc2Cl)o1 [Compound 1h]
secretion of TNF-α (TNF-α): reduced
NF-κB nuclear translocation (NF-κB p65): inhibited NF-κB nuclear translocation
IL-1β secretion ([1]; J774A.1, compound before LPS and ATP treatment): significantly inhibited
IL-1β secretion ([1]; LPS-primed J774A.1, compound 30 min before ATP stimulation): inhibited IL-1β secretion
